Reference: patent US20090068143A1, “ORALLY EFFECTIVE C[…]” (priority 2005, published 2009)

Tests used:
[1] = test system: MOG induced chronic progressive EAE; test: MOG induced chronic-progressive EAE; conditions: for animals that reached a clinical score of 0 (fully recovered): 13 animals per group
[2] = Stability in aqueous solutions; format: physicochemical; conditions: 2 mg/ml in phosphate buffer (pH 7.0), 4° C.
Description: Stability of compounds of the invention in aqueous solutions was compared. Compounds were dissolved in buffer phosphate solutions and their concentration monitored using HPLC and spectrophotometer methodology. While compound 18F at concentration of 2 mg/ml in phosphate buffer (pH 7.0) was stable for at least 3 months at 4° C., compound 18B at concentration of 95 μg/ml in citrate buffer (pH 7.1) readily hydrolyzed in less than 24 hours at 4° C. Therefore, compounds that were designed following the same rational yielded unexpectedly divergent outcome, for instance in connection with stability in aqueous solutions.

[3] = test system: MBP induced acute EAE; test: MBP induced acute EAE; format: in vivo, Lewis rats
Description: In the present study, EAE was induced by injection of Myelin Basic Protein (MBP), a method known to model the acute phase of MS. In this model the onset of the disease is observed by the appearance of clinical symptoms about 10 days after induction. The disease progresses and the clinical score increases and peaks around day 15 and spontaneous recovery is observed around day 23 after induction of the disease.
Female Lewis rats (average body weight 130-180 g, Harlan, Israel) were injected s.c. into the hind paws with 25 μg of purified guinea pig myelin basic protein (MBP, Sigma) emulsified in 0.1 ml of Complete Freund's Adjuvant (Difco). Animals were maintained on a 12 hours light/12 hours dark regimen, at a constant temperature of 22° C., with food and water ad libitum. Starting from day 8 following induction, animals were followed up on a daily basis. The results are recorded as clinical score; score of 0 indicates a normal animal with no clinical signs, 0.5 indicates a loss of tonicity in the tail's distal part, 1 indicates whole tail paralysis, 1.5 indicates hind legs weakness in one leg, 2 indicates hind legs weakness in two legs, 2.5 indicates fore legs paralysis in one leg, 3 indicates paralysis of all four legs, 4 indicates complete body paralysis and moribund state and 5 indicates death. The clinical score of the animals is recorded for 15 days following onset of disease until the end of the study 25 days following induction and the area under the curve (AUC) is calculated over this period of time.
Few routes of administration were assessed and the treatments were either administered intravenously (in CE vehicle) or orally by gavage (in PB vehicle) at volume dose of 5 ml/kg.
Results are expressed as mean±SEM and the differences between the treatment groups were analyzed by analysis of variance (ANOVA) followed by Tukey's post hoc test. A value of p<0.05 was considered to be statistically significant and is indicated on the figure by an asterisk over the relevant treatment group.
Compound 18A was dissolved in CREMOPHOR EL®:ethanol and further diluted in physiological buffer prior to i.v. administration. It is now disclosed that compound 18F could be dissolved directly in 80 mM phosphate buffer (pH 6.4) and administered p.o. Compound 18F was administered by oral gavage at doses of 20, 30, 40, 50 and 60 mg/kg to animals showing clinical signs of the disease. Each treatment group comprised at least 10 animals at onset of disease. At some doses, experiments were repeated up to four times.

CCCCCCC(C)(C)c1cc(O)c([C@H]2CC(=O)C3CC2C3(C)C)c(OC(=O)/C=C/C(=O)O)c1 (single isomer, unassigned; (-)) [Compound 18F, (−)-4-{4-[1,1-Dimethylheptyl]-2-fumarate-6-hydroxy-phenyl}-6,6-dimethyl-bicyclo[3.1.1]heptan-2-one]
reduction of clinical score, first peak day 14 to 25 ([1]; 20 mg/kg p.o. daily for 19 days from day 13): about 12% | animals that reached a clinical score of 0 (fully recovered) ([1]; 20 mg/kg p.o.): 8% | reduction of clinical score, first peak day 14 to 25 ([1]; 40 mg/kg p.o. daily for 19 days from day 13): 43% | animals that reached a clinical score of 0 (fully recovered) ([1]; 40 mg/kg p.o.): 23% | clinical score for about a week from day 36 ([1]; 60 mg/kg p.o.): about 0.2 | reduction of clinical score as compared to control, week from day 36 ([1]; 60 mg/kg p.o.): 80% | reduction of clinical score, first peak day 14 to 25 ([1]; 60 mg/kg p.o. daily for 19 days from day 13): 44% | animals that reached a clinical score of 0 (fully recovered) ([1]; 60 mg/kg p.o.): 31% | clinical score below control at the end of the study ([1]; 60 mg/kg p.o., 20 days after treatment cessation): 30% | clinical score at the end of the study ([1]; 60 mg/kg p.o., 20 days after treatment cessation, control 0.95): 0.65 | plateau level clinical score ([1]; 60 mg/kg p.o., control about 1.2): about 0.6 | side effects ([1]; high doses p.o., first 10 minutes post administration, eliminated from day 4): Some minor and transient side effects were observed | day of first full recovery ([1]; highest dose (60 mg/kg p.o.), treatment from day 13): 16 days | day of first full recovery ([1]; intermediate dose (40 mg/kg p.o.)): 17 days | day of first full recovery ([1]; lowest dose (20 mg/kg p.o.)): 22 days | reduction of AUC as compared to control group ([1]; separate study, 40 mg/kg p.o.): 36% | AUC of clinical score ([1]; separate study, daily from day 13, 18F 40 mg/kg p.o., COP-1 25 mg/kg s.c., IFN-β 10,000 IU per mouse s.c., control 24.14): 15.47 units | mean group clinical score at the end of the study ([1]; separate study, daily from day 13, 18F 40 mg/kg p.o., COP-1 25 mg/kg s.c., control above 2.4): 1.25 | time stable in solution [2]: at least 3 months | effect on clinical outcome (mean group score) ([3]; 20 mg/kg p.o.): does not significantly affect the clinical outcome | effect on mean of maximal scores (MMS) ([3]; 20 mg/kg p.o.): only a trend of improvement | effect on clinical outcome (mean group score) ([3]; 30 mg/kg p.o.): positive trend of score reduction | reduction of AUC ([3]; 30 mg/kg p.o., ns): more than 20% | reduction of AUC ([3]; 40 mg/kg p.o., p<0.05): 33% | reduction of AUC ([3]; 50 mg/kg p.o., p<0.05): 42% | animals died before study completion ([3]; 60 mg/kg p.o.): 7% | reduction of AUC ([3]; 60 mg/kg p.o., p<0.05): 43% | increase of pain threshold over vehicle treated animals (mechanical hyperalgesia) ([3]; 60 mg/kg p.o., preliminary): 25% | reduction in MMS ([3]; 30-60 mg/kg p.o.): at least 30% | CB1 mediated side effects ([3]; repeated p.o. administration): no CB1 mediated side effects were observed
